# Read-outs that look alike come from different tables or passages of the source.
# Tests used:
# [1] = Rat blood PK, IV and oral; assay type: in vivo; conditions: for Vd / half-life / clearance / MRT / bioavailability / AUC(0-inf) / AUC(0-t) / Cmax: rat; for bioavailability / AUC(0-inf) / AUC(0-t) / Cmax: 10 mg/kg
# Method: Blood samples were collected at 0.083, 0.25, 0.5, 1, 2, 4, 8, 23, 32, 48, 55 and 72 hours after an IV dose of 2 mg/kg or an oral dose of 10 mg/kg. Oral administration was done using oral gavage at a maximum dose volume of 10 mL/kg. Solution formulation containing 10% NMP, 20% DMA in dextrose / normal saline was used for IV administration and a suspension in 0.5% w/v HPMC with 0.1% v/v Tween 80 was used for oral administration. 25 µl of blood samples were mixed with 100 µL of Milli-Q water and vortexed for 5 minutes in the plate shaker at a speed of 900 rpm to ensure complete hemolysis. Proteins were precipitated by adding 125 µL of cold acetonotrile containing internal standard. After extraction on a plate shaker for 10 minutes at 900 rpm, the plate was centrifuged at 4000 rpm for 20 minutes. The supernatant (180 µL) was transferred to another plate and 2.5 µL of Zinc sulphate (200 mM) was added to separate the heme fraction. This mixture was centrifuged and 10 µL of the supernatant was analyzed by LC-MS/MS. […]
# [2] = Acute anaesthetized guinea pig cardiovascular (CVS) model, compound 12; assay type: in vivo
# Method: Male Dunkin Hartley guinea pigs (n=6 per group; 342–401 g; 4–5 weeks old; Charles River Laboratories, L’Arbresle, Cedex) were anaesthetized with sodium pentobarbitone (60 mg kg^−1 intraperitoneally followed by 6 mg kg^−1 h^−1 i.v. (jugular) for maintenance) and mechanically ventilated. Animals were surgically prepared for the measurement of haemodynamic (blood pressure, heart rate and contractility (including left ventricular pressure)) and electrocardiographic (ECG)-derived parameters (QTcB, PR interval and QRS duration). Briefly, catheters were introduced into a carotid artery and a jugular vein for the measurement of arterial blood pressure and administration of the test item, respectively. Needle electrodes were placed subcutaneously in a lead II position for ECG recording. A fluid-filled catheter was introduced into the left ventricle via the opposite carotid artery for left ventricular pressure measurement.
# Animals received two consecutive i.v. infusions of either vehicle (group 1; 40% v/v dimethylacetamide/20% v/v polyethylene glycol 400/17% w/v hydroxyl propyl beta cyclodextrin (HPβCD/kleptose) in water for injection) or compound 12 at 10 or 30 mg kg^−1 (group 2). Each infusion lasted for 15 min at a dose volume of 3 ml kg^−1 (rate of 0.2 ml kg^−1 min^−1). Animals were monitored for a further 30-min washout period. Blood samples were taken at 5, 10 and 15 min after the start of each infusion and at 5, 10, 20 and 30 min during the washout phase.
# Following a stabilization period, haemodynamic and ECG parameters were measured (using HEM software, version 4.3, Notocord Systems) at 10 and 5 min before administration (mean of measurements obtained at these time points=baseline; T0), and 2.5, 5, 10 and 15 min after the start of each i.v. infusion of compound 12 or vehicle and 5, 10, 20 and 30 min after the end of the second infusion. A detailed description of the model, its background and validation has been described earlier.
# All parameters were analysed statistically using SAS software. Baseline values were defined as mean of measurments taken 10 or 5 min before dosing. For each parameter, homogeneity of baseline values (T0) between the two groups were tested using a two-tailed Student’s t-test. Changes from baseline were assessed using a two-way analysis of variance (group and time) with repeated measurements over the time and group × time interaction.
# Anaesthetised Guinea Pig Cardiovascular toxicity study for compound 12. Group mean ±SEM data are presented in Supplementary Fig. 16a to 16l. Mean ± standard error plasma exposure data are illustrated in Supplementary Fig. 16m. The mean of the two control recording periods was used as a baseline value. Administration of vehicle produced the expected level of variability in cardiovascular parameters over the time course of this study.
# This was considered within acceptable ranges for vehicle data. Actual changes caused by compound 12 were derived by subtracting the effect of the time-matched vehicle data and are discussed using mean % change from baseline values. All findings reported below achieved statistical significance (P < 0.05), unless indicated as a trend. Isolated incidences of statistical significance, that show no relation to compound effects, were not considered of […]
# Blood pressure, LVP and heart rate effect: Following i.v. administration of compound 12 at 10 mg/kg, the following observations were noted:
# - A 15% decrease in dP/dtmax (an index of cardiac contractility).
# As the dose increased to 30 mg/kg, the following effects were observed:
# - A 8% decrease in heart rate (HR), - A 10% decrease in left ventricular systolic pressure (LVsys), - A 27% decrease in dP/dtmax.
# There was evidence of recovery for dP/dtmax during the 30 minutes wash-out period.
# Despite attaining statistical significance, the magnitude of the effects on dP/dtmax at […]
# [3] = Wistar, whole blood, po, Oral 10 mg kg-1, Mean
# [4] = Wistar, whole blood, po, Oral 10 mg kg-1, Rat 1
# [5] = Wistar, whole blood, po, Oral 10 mg kg-1, Rat 2
# [6] = Wistar, whole blood, po, Oral 10 mg kg-1, Rat 3
compound,measurement,setting,value
"Cc1nc(Nc2ncc(N3CCN(C)[C@H](C)C3)c(Nc3cc(C)n(C)n3)n2)cc(C2CC2)c1F [compound 12, (R)-N2-(4-cyclopropyl-5-fluoro-6-methylpyridin-2-yl)-N4-(1,5-dimethyl-1H-pyrazol-3-yl)-5-(3,4-dimethylpiperazin-1-yl)pyrimidine-2,4-diamine]",Vd,"[1]; Wistar (rat), Beagle (dog), whole blood (rat), plasma (dog), intravenous, 2 mg/kg, rat and dog, read-out: volume of distribution (Vss)",10 to 20 L/kg
same,half-life,"[1]; Wistar (rat), Beagle (dog), whole blood (rat), plasma (dog), iv, 2 mg/kg, intravenous PK, rat and dog, read-out: half-life",11 to 13 h
same,half-life,"[1]; Wistar (rat), Beagle (dog), whole blood (rat), plasma (dog), po, oral PK study, rat and dog, read-out: half-life",14 to 16 h
same,clearance,"[1]; Wistar, blood, iv, 2 mg/kg, Rat, read-out: Observed blood CL",5 to 13 mL/min/kg
same,MRT,"[1]; Wistar, whole blood, iv, 2 mg/kg, IV 2 mg kg-1, Mean",15.7 h
same,clearance,"[1]; Wistar, whole blood, iv, 2 mg/kg, IV 2 mg kg-1, Mean, read-out: CL",9.2 mL/min/kg
same,Vd,"[1]; Wistar, whole blood, iv, 2 mg/kg, IV 2 mg kg-1, Mean, read-out: Vss",7.7 L/kg
same,half-life,"[1]; Wistar, whole blood, iv, 2 mg/kg, IV 2 mg kg-1, Mean, read-out: t½ (converted)",15.2 h
same,MRT,"[1]; Wistar, whole blood, iv, 2 mg/kg, IV 2 mg kg-1, Rat 1",11.8 h
same,clearance,"[1]; Wistar, whole blood, iv, 2 mg/kg, IV 2 mg kg-1, Rat 1, read-out: CL",13.1 mL/min/kg
same,Vd,"[1]; Wistar, whole blood, iv, 2 mg/kg, IV 2 mg kg-1, Rat 1, read-out: Vss",9.3 L/kg
same,half-life,"[1]; Wistar, whole blood, iv, 2 mg/kg, IV 2 mg kg-1, Rat 1, read-out: t½ (converted)",13.5 h
same,MRT,"[1]; Wistar, whole blood, iv, 2 mg/kg, IV 2 mg kg-1, Rat 2",22.6 h
same,clearance,"[1]; Wistar, whole blood, iv, 2 mg/kg, IV 2 mg kg-1, Rat 2, read-out: CL",4.8 mL/min/kg
same,Vd,"[1]; Wistar, whole blood, iv, 2 mg/kg, IV 2 mg kg-1, Rat 2, read-out: Vss",6.6 L/kg
same,half-life,"[1]; Wistar, whole blood, iv, 2 mg/kg, IV 2 mg kg-1, Rat 2, read-out: t½ (converted)",19.2 h
same,MRT,"[1]; Wistar, whole blood, iv, 2 mg/kg, IV 2 mg kg-1, Rat 3",12.6 h
same,clearance,"[1]; Wistar, whole blood, iv, 2 mg/kg, IV 2 mg kg-1, Rat 3, read-out: CL",9.6 mL/min/kg
same,Vd,"[1]; Wistar, whole blood, iv, 2 mg/kg, IV 2 mg kg-1, Rat 3, read-out: Vss",7.2 L/kg
same,half-life,"[1]; Wistar, whole blood, iv, 2 mg/kg, IV 2 mg kg-1, Rat 3, read-out: t½ (converted)",13 h
same,bioavailability,"[1]; Wistar, whole blood, oral, read-out: Rat F (bioavailability)",80%
same,AUC(0-inf),[1]; [3],35.8 µM·h
same,AUC(0-t),[1]; [3],34.7 µM·h
same,Cmax,[1]; [3],2000 nM
same,bioavailability,"[1]; Wistar, whole blood, po, Oral 10 mg kg-1, Mean, read-out: F",90%
same,AUC(0-inf),[1]; [4],33.1 µM·h
same,AUC(0-t),[1]; [4],31.8 µM·h
same,Cmax,[1]; [4],1710 nM
same,bioavailability,"[1]; Wistar, whole blood, po, Oral 10 mg kg-1, Rat 1, read-out: F",121%
same,AUC(0-inf),[1]; [5],38.4 µM·h
same,AUC(0-t),[1]; [5],37.2 µM·h
same,Cmax,[1]; [5],2210 nM
same,bioavailability,"[1]; Wistar, whole blood, po, Oral 10 mg kg-1, Rat 2, read-out: F",52%
same,AUC(0-inf),[1]; [6],36 µM·h
same,AUC(0-t),[1]; [6],35.1 µM·h
same,Cmax,[1]; [6],1990 nM
same,bioavailability,"[1]; Wistar, whole blood, po, Oral 10 mg kg-1, Rat 3, read-out: F",96%
same,Tmax,"[1]; Wistar, whole blood, Oral 10 mg kg-1, Rat 1",4 h
same,CL,[1]; rat and dog,< 35 % liver blood flow
same,"PR interval, QRS duration and QTcB interval",[2]; 10 mg/kg i.v.,unaffected
same,decrease in dP/dtmax (index of cardiac contractility),"[2]; 10 mg/kg i.v., vehicle-corrected mean % change from baseline",15%
same,decrease in heart rate (HR),[2]; 30 mg/kg i.v.,8%
same,decrease in left ventricular systolic pressure (LVsys),[2]; 30 mg/kg i.v.,10%
same,increase in QTcB,[2]; 30 mg/kg i.v.,7%
same,decrease in dP/dtmax,"[2]; 30 mg/kg i.v., vehicle-corrected mean % change from baseline",27%
same,A—plasma Cmax free,"[2]; guinea pig, 10 mg kg^−1 i.v.",90 nM
same,Safety margin (A/B)-free Cmax,"[2]; guinea pig, 10 mg kg^−1 i.v.",10.3
same,Summary of clinical signs and effects,"[2]; guinea pig, 10 mg kg^−1 i.v., NOEL = no observed effect level",NOEL
same,Peak total plasma concentration,"[2]; guinea pig, 10 mg/kg i.v.",1.69 ± 0.15 µmol/L
same,A—plasma Cmax free,"[2]; guinea pig, 30 mg kg^−1 i.v.",280 nM
same,Safety margin (A/B)-free Cmax,"[2]; guinea pig, 30 mg kg^−1 i.v.",32.2
same,Summary of clinical signs and effects,"[2]; guinea pig, 30 mg kg^−1 i.v.",Contractility and QTcB effects
same,Peak total plasma concentration,"[2]; guinea pig, 30 mg/kg i.v.",5.05 ± 0.64 µmol/L
same,NOEL,"[2]; guinea pig, i.v.",10 mg/kg
